How the values were obtained:
Lck (h) = Lck (h) (Homo sapiens, UniProt P06239); experiment: Lck human STE kinase enzymatic radiometric assay; format: biochemical; settings: for IC50: read-out: Lck IC50 nM Range
Procedure: (b) Lck Human STE Kinase Enzymatic Radiometric Assay
Lck (h) is incubated with 50 mM Tris pH 7.5, 0.1 mM EGTA, 0.1 mM Na3VO4, 250 uM KVEKIGEGTYGVVYK (Cdc2 peptide), 10 mM MgAcetate and [gamma-33P]-ATP (specific activity and concentration as required). The reaction is initiated by the addition of the Mg/ATP mix. After incubation for 40 minutes at room temperature, the reaction is stopped by the addition of phosphoric acid to a concentration of 0.5%, 10 μL of the reaction is then spotted onto a P30 filtermat and washed four times for 4 minutes in 0.425% phosphoric acid and once in methanol prior to drying and scintillation counting. For more details on the kinase assay procedures see: Gao, Y. et. al.; Biochem J., 451 (2): 313-328, 2013.

[1] = target: T1, Recombinant (1-346) HPK1 (h) (Homo sapiens, UniProt Q92918); experiment: HPK1 human STE kinase enzymatic radiometric assay; format: biochemical; settings: read-out: HPK1 IC50 nM Range
T1 construct: Recombinant (1-346) HPK1 (h) is incubated with 8 mM MOPS pH 7.0
T1 sequence (Q92918 1-346): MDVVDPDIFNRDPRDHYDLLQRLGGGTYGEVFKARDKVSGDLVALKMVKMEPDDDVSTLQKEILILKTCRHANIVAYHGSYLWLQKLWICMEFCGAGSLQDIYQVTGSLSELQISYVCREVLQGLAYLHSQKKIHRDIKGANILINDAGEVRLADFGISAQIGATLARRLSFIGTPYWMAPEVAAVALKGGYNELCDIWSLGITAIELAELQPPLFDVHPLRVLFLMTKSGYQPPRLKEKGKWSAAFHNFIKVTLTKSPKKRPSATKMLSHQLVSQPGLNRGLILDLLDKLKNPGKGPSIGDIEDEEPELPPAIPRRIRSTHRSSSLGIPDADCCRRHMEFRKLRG
In short: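 Compounds in 3-fold, 9-point serial dilution; kinase (residues 1-346) phosphorylates myelin basic protein (0.33 mg/mL) using [gamma-33P]-ATP at pH 7.0 (MOPS, EDTA, Mg acetate) for 40 min, room temperature. Acid-quenched mixture filtered onto P30 mats; incorporated radioactivity read by scintillation counting.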

Sequence of Lck (h) (P06239 whole entry): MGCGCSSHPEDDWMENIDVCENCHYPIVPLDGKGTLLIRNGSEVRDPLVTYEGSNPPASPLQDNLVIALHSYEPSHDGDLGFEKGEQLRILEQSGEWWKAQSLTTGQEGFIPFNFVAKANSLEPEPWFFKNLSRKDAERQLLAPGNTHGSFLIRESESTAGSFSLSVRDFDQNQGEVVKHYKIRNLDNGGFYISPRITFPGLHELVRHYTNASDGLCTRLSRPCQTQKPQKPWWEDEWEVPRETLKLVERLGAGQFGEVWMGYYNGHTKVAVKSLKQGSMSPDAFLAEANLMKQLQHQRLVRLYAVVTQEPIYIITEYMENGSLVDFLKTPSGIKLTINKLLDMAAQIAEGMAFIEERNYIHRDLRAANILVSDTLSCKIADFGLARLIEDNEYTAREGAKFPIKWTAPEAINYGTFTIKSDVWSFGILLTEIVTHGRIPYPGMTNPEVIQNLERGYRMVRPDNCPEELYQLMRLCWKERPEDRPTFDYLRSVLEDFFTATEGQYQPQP

Row | SMILES | IC50 (Lck (h)) | IC50 [1] | LcK IC50/HPK IC50 selectivity (Lck (h); ratio Lck IC50 / HPK1 IC50)
1 | Nc1nc(F)c(-c2ccc(N3CCOCC3)cc2)nc1-c1ccc2c(c1)CCNC2=O [drawing 1319] | – | – | >1666
2 | CN(C)[C@@H]1COc2ccc(-c3nc(-c4cc5c(cc4F)C(=O)NCC5)c(N)nc3F)cc21 [Example I-255, (S)-6-(3-amino-6-(3-(dimethylamino)-2,3-dihydrobenzofuran-5-yl)-5-fluoropyrazin-2-yl)-7-fluoro-3,4-dihydroisoquinolin-1(2H)-one] | – | 11 to 100 nM | –
3 | CN(C)[C@@H]1CCOc2ccc(-c3nc(-c4cc5c(cc4F)C(=O)NCC5)c(N)nc3F)cc21 [Example I-288, (R)-6-(3-amino-6-(4-(dimethylamino)chroman-6-yl)-5-fluoropyrazin-2-yl)-7-fluoro-3,4-dihydroisoquinolin-1(2H)-one] | – | 11 to 100 nM | –
4 | COc1ccc(-c2nc(-c3ccc4c(c3)CCNC4=O)c(N)nc2F)cc1CN(C)C [Example I-250, 6-(3-amino-6-(3-((dimethylamino)methyl)-4-methoxyphenyl)-5-fluoropyrazin-2-yl)-3,4-dihydroisoquinolin-1(2H)-one] | – | 11 to 100 nM | –
5 | Cc1nc2cc(-c3nc(-c4ccc(C5CCOCC5)c(CN5CCC[C@@H]5C)c4)c(F)nc3N)cc(F)c2c(=O)[nH]1 [Example I-219, (S)-7-(3-amino-5-fluoro-6-(3-((2-methylpyrrolidin-1-yl)methyl)-4-(tetrahydro-2H-pyran-4-yl)phenyl)pyrazin-2-yl)-5-fluoro-2-methylquinazolin-4(3H)-one] | – | 101 to 1000 nM | –
6 | CO[C@H]1CCN(Cc2cc(-c3nc(-c4cc5c(cc4F)C(=O)NCC5)c(N)nc3F)ccc2N2CCOCC2)C1 [Example I-157, (S)-6-(3-amino-5-fluoro-6-(3-((3-methoxypyrrolidin-1-yl)methyl)-4-morpholinophenyl)pyrazin-2-yl)-7-fluoro-3,4-dihydroisoquinolin-1(2H)-one] | – | 0.1 to 10 nM | –
7 | Nc1nc(F)c(-c2ccc(N3CCN(C4COC4)CC3)cc2)nc1-c1cc2c(cc1F)C(=O)NCC2 [Example I-45, 6-(3-amino-5-fluoro-6-(4-(4-(oxetan-3-yl)piperazin-1-yl)phenyl)pyrazin-2-yl)-7-fluoro-3,4-dihydroisoquinolin-1(2H)-one] | – | 11 to 100 nM | –
8 | CO[C@H]1CCN(Cc2cc(-c3nc(-c4cc(F)c5c(c4)CCNC5=O)c(N)nc3F)ccc2N2CCOCC2)C1 [Example I-158, (S)-6-(3-amino-5-fluoro-6-(3-((3-methoxypyrrolidin-1-yl)methyl)-4-morpholinophenyl)pyrazin-2-yl)-8-fluoro-3,4-dihydroisoquinolin-1(2H)-one] | – | 0.1 to 10 nM | –
9 | CO[C@@H]1CCN(Cc2cc(-c3nc(-c4cc5c(cc4F)C(=O)NCC5)c(N)nc3F)ccc2N2CCOCC2)C1 [Example I-152, (R)-6-(3-amino-5-fluoro-6-(3-((3-methoxypyrrolidin-1-yl)methyl)-4-morpholinophenyl)pyrazin-2-yl)-7-fluoro-3,4-dihydroisoquinolin-1(2H)-one] | – | 0.1 to 10 nM | –
10 | Cc1nc2cc(-c3nc(-c4ccc(N5CCOCC5)c(CN(C)C)c4)c(F)nc3N)ccc2c(=O)[nH]1 [Example I-77, 7-(3-amino-6-(3-((dimethylamino)methyl)-4-morpholinophenyl)-5-fluoropyrazin-2-yl)-2-methylquinazolin-4(3H)-one] | – | 11 to 100 nM | –
11 | Cc1nc2cc(-c3nc(-c4ccc(N5C[C@@H](C)O[C@@H](C)C5)c(CN(C)C)c4)c(F)nc3N)cc(F)c2c(=O)[nH]1 [Example I-196, 7-(3-amino-6-(3-((dimethylamino)methyl)-4-((2R,6S)-2,6-dimethylmorpholino)phenyl)-5-fluoropyrazin-2-yl)-5-fluoro-2-methylquinazolin-4(3H)-one] | – | 11 to 100 nM | –
12 | CC1NC(=O)c2c(F)cc(-c3nc(-c4ccc([C@]56C[C@H]5CN(C5CCC5)C6)cc4)c(F)nc3N)cc2C1(F)F (stereo partly drawn) [Example I-195, 6-(3-amino-6-(4-((1S,5R)-3-cyclobutyl-3-azabicyclo[3.1.0]hexan-1-yl)phenyl)-5-fluoropyrazin-2-yl)-4,4,8-trifluoro-3-methyl-3,4-dihydroisoquinolin-1(2H)-one] | – | 11 to 100 nM | –
13 | CN(C)Cc1cc(-c2nc(-c3ccc4c(=O)[nH]cc(F)c4c3)c(N)nc2F)ccc1O [Example I-305, 6-(3-amino-6-(3-((dimethylamino)methyl)-4-hydroxyphenyl)-5-fluoropyrazin-2-yl)-4-fluoroisoquinolin-1(2H)-one] | – | 0.1 to 10 nM | –
14 | Cc1cc(-c2nc(-c3ccc4c(=O)[nH]cc(C)c4c3)c(N)nc2F)cc2c1CCN(C)C2 [Example I-295, 6-(3-amino-6-(2,5-dimethyl-1,2,3,4-tetrahydroisoquinolin-7-yl)-5-fluoropyrazin-2-yl)-4-methylisoquinolin-1(2H)-one] | – | 11 to 100 nM | –
15 | Cc1c[nH]c(=O)c2ccc(-c3nc(-c4cccc(CN(C)C)c4)c(F)nc3N)cc12 [Example I-280, 6-(3-amino-6-(3-((dimethylamino)methyl)phenyl)-5-fluoropyrazin-2-yl)-4-methylisoquinolin-1(2H)-one] | – | 11 to 100 nM | –

Second part, led by results:

Row | IC50 (Lck (h)) | IC50 [1] | SMILES | LcK IC50/HPK IC50 selectivity (Lck (h); ratio Lck IC50 / HPK1 IC50)
16 | > 1000 nM | 0.1 to 10 nM | Cc1[nH]c(=O)c2c(F)cc(-c3nc(-c4ccc(C5CCOCC5)c(CN(C)C)c4)c(F)nc3N)cc2c1F [Example I-117, 6-(3-amino-6-(3-((dimethylamino)methyl)-4-(tetrahydro-2H-pyran-4-yl)phenyl)-5-fluoropyrazin-2-yl)-4,8-difluoro-3-methylisoquinolin-1(2H)-one] | –
17 | > 1000 nM | 0.1 to 10 nM | CCN(C)Cc1cc(-c2nc(-c3cc4c(cc3F)C(=O)NCC4)c(N)nc2F)ccc1C1CCOCC1 [Example I-164, 6-(3-amino-6-(3-((ethyl(methyl)amino)methyl)-4-(tetrahydro-2H-pyran-4-yl)phenyl)-5-fluoropyrazin-2-yl)-7-fluoro-3,4-dihydroisoquinolin-1(2H)-one] | –
18 | > 1000 nM | 0.1 to 10 nM | CC(C)N1CCN(c2ccc(-c3nc(-c4ccc5c(=O)[nH]ccc5c4)c(N)nc3F)cc2)CC1 [Example I-20, 6-(3-amino-5-fluoro-6-(4-(4-isopropylpiperazin-1-yl)phenyl)pyrazin-2-yl)isoquinolin-1(2H)-one] | –
19 | 101 to 1000 nM | 0.1 to 10 nM | CC(C)N1CCN(c2ccc(-c3nc(-c4cc(F)c5c(c4)CCNC5=O)c(N)nc3F)cc2)CC1 [Example I-14, 6-(3-amino-5-fluoro-6-(4-(4-isopropylpiperazin-1-yl)phenyl)pyrazin-2-yl)-8-fluoro-3,4-dihydroisoquinolin-1(2H)-one] | –
20 | > 1000 nM | 0.1 to 10 nM | Cc1cc2cc(-c3nc(-c4ccc(N5CCN(C(C)C)CC5)cc4)c(F)nc3N)cc(F)c2c(=O)[nH]1 [Example I-67, 6-(3-amino-5-fluoro-6-(4-(4-isopropylpiperazin-1-yl)phenyl)pyrazin-2-yl)-8-fluoro-3-methylisoquinolin-1(2H)-one] | –
21 | > 1000 nM | 0.1 to 10 nM | Nc1nc(F)c(-c2ccc(N3CCOCC3)cc2)nc1-c1cc(F)c2c(=O)[nH]ccc2c1 [Example I-36, 6-(3-amino-5-fluoro-6-(4-morpholinophenyl)pyrazin-2-yl)-8-fluoroisoquinolin-1(2H)-one] | –
22 | – | 0.1 to 10 nM | Cc1c[nH]c(=O)c2ccc(-c3nc(-c4ccc(C5CCOCC5)c(CN5CCCC5)c4)c(F)nc3N)cc12 [Example I-205, 6-(3-amino-5-fluoro-6-(3-(pyrrolidin-1-ylmethyl)-4-(tetrahydro-2H-pyran-4-yl)phenyl)pyrazin-2-yl)-4-methylisoquinolin-1(2H)-one] | –
23 | – | 0.1 to 10 nM | Nc1nc(F)c(-c2ccc(N3CCN(CCCC(F)F)CC3)cc2)nc1-c1ccc2c(=O)[nH]ccc2c1 [Example I-70, 6-(3-amino-6-(4-(4-(4,4-difluorobutyl)piperazin-1-yl)phenyl)-5-fluoropyrazin-2-yl)isoquinolin-1(2H)-one] | –
24 | – | 0.1 to 10 nM | Nc1nc(F)c(-c2ccc([C@]34C[C@H]3CN(C3CCC3)C4)cc2)nc1-c1ccc2c(=O)[nH]cc(F)c2c1 [Example I-99, 6-(3-amino-6-(4-((1S,5R)-3-cyclobutyl-3-azabicyclo[3.1.0]hexan-1-yl)phenyl)-5-fluoropyrazin-2-yl)-4-fluoroisoquinolin-1(2H)-one] | –
25 | – | 0.1 to 10 nM | C[C@H]1CN(c2ccc(-c3nc(-c4cc5c(cc4F)C(=O)NCC5)c(N)nc3F)cc2CN(C)C)CCO1 [Example I-212, (S)-6-(3-amino-6-(3-((dimethylamino)methyl)-4-(2-methylmorpholino)phenyl)-5-fluoropyrazin-2-yl)-7-fluoro-3,4-dihydroisoquinolin-1(2H)-one] | –

From US20240425479A1, “HALO-SUBSTITUTED AMINO AZA-HETEROARYL COMPOUNDS AS INHIBITORS OF THE HAEMATOPOIETIC PROGENITOR KINASE 1 (HPK1)” (priority 2021, published 2024)
